According to paper PMC4540356 (Thrombosis and haemostasis, 2010):

Tests used:
integrin αvβ3 [1] = target: T1, integrin αvβ3 (Homo sapiens, UniProt P05106+P06756); assay: Surface plasmon resonance, binding to integrin αvβ3; conditions: BIAcore 2000, CM5 chip, 1,290 RU RAD-TP508, αvβ3 0.053 to 1.06 μM
HUVEC [2] = assay: Adhesion of HUVEC to immobilised TP508 peptides; format: cell-based, human; conditions: calcein AM-labelled cells, 30 min, 37°C, fluorescence, n=3
HUVEC [3] = assay: Inhibition of HUVEC adhesion to immobilised fibrinogen by soluble peptide; format: cell-based, human; conditions: wells coated with 1 μg/ml fibrinogen; 30 min, n=3
integrin αvβ3 [4] = target: T1, integrin αvβ3; assay: Adhesion of HEK-αvβ3 cells to immobilised TP508 peptides; format: cell-based; conditions: calcein AM-labelled cells, 30 min, 37°C, fluorescence (Ex485/Em530), n=3
endothelial cells = conditions: thrombin immobilised to a surface, ref [15]–[17]; cited from earlier work
αvβ3 = conditions: read-out: affinity of αvβ3 to ligand; ref [30]–[31]; cited from earlier work
integrin αvβ3 [5] = target: T1, integrin αvβ3; assay: Inhibition of HEK-αvβ3 adhesion to immobilised fibrinogen by soluble peptide; format: cell-based; conditions: wells coated with 1 μg/ml fibrinogen; 30 min, n=3
HUVEC [6] = assay: Nitric oxide assay in HUVEC; format: cell-based, human; conditions: 150 μg/ml TP508 vs 20 μM A23187, 1 h, n=4 (p>0.05)
rat aortic rings = assay: Muscle-bath assay, carbachol-induced vasorelaxation of rat aortic rings; set-up: species or system rat (Sprague Dawley); conditions: no TP508, 500 nM norepinephrine 10 min, cumulative 750 nM carbachol; n=3 aortas

T1 sequence (P06756 31-889 limits assumed): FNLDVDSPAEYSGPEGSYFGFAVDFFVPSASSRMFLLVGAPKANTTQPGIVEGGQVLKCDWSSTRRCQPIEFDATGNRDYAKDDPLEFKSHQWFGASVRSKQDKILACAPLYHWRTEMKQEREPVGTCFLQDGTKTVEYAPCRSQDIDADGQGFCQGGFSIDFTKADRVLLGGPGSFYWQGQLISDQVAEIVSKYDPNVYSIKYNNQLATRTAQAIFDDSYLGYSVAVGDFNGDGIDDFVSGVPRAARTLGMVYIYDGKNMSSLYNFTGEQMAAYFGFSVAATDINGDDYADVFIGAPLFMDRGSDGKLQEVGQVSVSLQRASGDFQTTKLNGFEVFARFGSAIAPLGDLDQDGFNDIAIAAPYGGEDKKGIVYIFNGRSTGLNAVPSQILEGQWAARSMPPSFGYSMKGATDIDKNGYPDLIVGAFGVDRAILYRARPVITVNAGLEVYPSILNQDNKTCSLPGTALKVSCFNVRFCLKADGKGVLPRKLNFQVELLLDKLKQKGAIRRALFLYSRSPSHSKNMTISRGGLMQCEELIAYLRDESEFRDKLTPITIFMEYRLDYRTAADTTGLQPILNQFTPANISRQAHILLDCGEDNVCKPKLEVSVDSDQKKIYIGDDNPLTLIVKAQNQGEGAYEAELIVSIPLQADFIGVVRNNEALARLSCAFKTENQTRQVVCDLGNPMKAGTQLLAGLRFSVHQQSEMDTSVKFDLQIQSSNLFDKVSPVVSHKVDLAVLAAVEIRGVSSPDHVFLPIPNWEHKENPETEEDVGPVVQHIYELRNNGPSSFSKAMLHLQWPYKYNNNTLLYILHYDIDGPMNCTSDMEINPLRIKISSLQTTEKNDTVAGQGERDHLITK
T1 sequence (P06756 891-1048 partner limits assumed): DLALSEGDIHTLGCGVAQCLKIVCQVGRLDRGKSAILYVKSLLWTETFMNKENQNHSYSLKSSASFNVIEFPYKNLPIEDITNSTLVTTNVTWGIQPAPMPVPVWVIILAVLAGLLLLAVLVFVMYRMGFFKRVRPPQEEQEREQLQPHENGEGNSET
T1 sequence (P05106 27-788): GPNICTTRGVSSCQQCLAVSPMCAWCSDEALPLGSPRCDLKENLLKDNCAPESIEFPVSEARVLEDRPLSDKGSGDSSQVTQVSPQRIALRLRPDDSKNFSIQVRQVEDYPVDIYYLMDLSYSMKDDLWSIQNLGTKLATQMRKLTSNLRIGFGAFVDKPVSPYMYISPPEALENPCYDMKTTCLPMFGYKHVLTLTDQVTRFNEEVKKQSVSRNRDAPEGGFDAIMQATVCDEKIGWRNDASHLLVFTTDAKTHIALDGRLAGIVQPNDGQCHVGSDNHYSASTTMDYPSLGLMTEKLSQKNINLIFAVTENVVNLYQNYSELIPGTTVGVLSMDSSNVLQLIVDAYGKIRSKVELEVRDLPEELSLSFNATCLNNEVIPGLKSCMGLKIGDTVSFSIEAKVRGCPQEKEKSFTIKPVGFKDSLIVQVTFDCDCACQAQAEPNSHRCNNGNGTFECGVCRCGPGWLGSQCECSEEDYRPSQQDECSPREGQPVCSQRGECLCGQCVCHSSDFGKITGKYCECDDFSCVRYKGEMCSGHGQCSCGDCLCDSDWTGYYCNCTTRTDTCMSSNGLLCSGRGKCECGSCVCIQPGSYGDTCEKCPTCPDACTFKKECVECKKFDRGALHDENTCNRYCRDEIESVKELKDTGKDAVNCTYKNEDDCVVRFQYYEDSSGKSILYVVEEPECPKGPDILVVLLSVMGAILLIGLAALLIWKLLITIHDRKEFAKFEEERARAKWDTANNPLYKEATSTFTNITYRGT

Molecule: AGYKPDEGKRADACEGDSGGPFV [RAD-TP508]
- binding of αvβ3 to coupled peptide (SPR) (integrin αvβ3 [1]): No binding
- adhesion of HUVEC to immobilised peptide (HUVEC [2]): did not support HUVEC adhesion
- effect of soluble peptide on HUVEC adhesion to immobilised fibrinogen (HUVEC [3]): did not affect HUVEC adhesion to immobilised fibrinogen
- adhesion of HEK-αvβ3 cells to immobilised peptide (integrin αvβ3 [4]): did not support HEK-αvβ3 adhesion

Molecule: Thrombin
- endothelial cell adhesion to immobilised thrombin (endothelial cells): support endothelial cell adhesion in an RGD-dependent manner

Molecule: vitronectin: physiological ligand of αvβ3
- Kd (αvβ3): 27 nM

Molecule: KAPSEVDKAGDRDGYGFCGGPGE [scrTP508]
- adhesion of HUVEC to immobilised peptide (HUVEC [2]): did not support HUVEC adhesion
- effect of soluble peptide on HUVEC adhesion to immobilised fibrinogen (HUVEC [3]): did not affect HUVEC adhesion to immobilised fibrinogen
- adhesion of HEK-αvβ3 cells to immobilised peptide (integrin αvβ3 [4]): did not support HEK-αvβ3 adhesion

Molecule: GRGDSP
- effect of soluble peptide on HEK-αvβ3 adhesion to immobilised fibrinogen (integrin αvβ3 [5]): effectively inhibited cell adhesion

Molecule: CNc1ccc2oc(C[C@H]3O[C@@]4(CC[C@H]3C)O[C@H]([C@H](C)C(=O)c3ccc[nH]3)[C@H](C)C[C@H]4C)nc2c1C(=O)O [A23187]
- NO induction by TP508 compared with A23187 (HUVEC [6]): a potent inducer of NO

Molecule: C[N+](C)(C)CCOC(N)=O [carbachol]
- vasorelaxation by carbachol in rings not treated with TP508, 750 nM (rat aortic rings): 20%

Molecule: fibrinogen: Human fibrinogen
- Kd (αvβ3): 64 nM
